US6096874A (Board of Regents, the University of Texas System, priority 1995, dated 2000)
Each block holds one molecule with its values, some of them ahead of it.

Legend:
breast tumors [1] = test: PET imaging of ER+ breast tumors in patients; format: in vivo, human
Description: This example describes a ligand for imaging ER (+) breast tumors by positron emission tomography (PET) or single photon emission computed tomography (SPECT).
PET imaging was performed on three breast cancer patients (age 54±3) (ER+) with a positron camera (Positron Corporation, Houston, Tex.). Each patient was positioned supine in the scanner so that the detector rings would span the entire breast cancer region. A 20-min attenuation scan was performed with a 4 mCi [^68 Ge]-ring source prior to [^18 F]FTX. After each patient received 4 mCi of {^18 F]FTX, six consecutive 20 min scans were acquired. Serial transaxial images were performed. The tomograph has a field-of-view of 42 cm on transverse and 12 cm on coronal plans. The axial resolution on the reconstructed plan is 1.2 cm. […] The SUV value is generated using a dedicated computer.

breast tumors [2] = test: PET imaging of ER+ breast tumors in patients; format: in vivo, human; details: for SUV in lesion of patients responding poorly to tamoxifen therapy: 4/5 patients
[3] = Biodistribution in estradiol-primed or unprimed female Sprague-Dawley rats; format: in vivo, rat
Description: Four groups of rats (150-200 gm, N=4/group) were anesthetized with ketamine (10-15 mg/rat). […]. Tissue uptake of ^18 F-tracer was determined at 2 and 4 hours (h). To ascertain whether the ^18 F-tracer uptake was mediated by a receptor-process, one group of rats was given ^18 F-tracer without priming with estradiol; and another group of rats was given unlabeled estradiol (30 μg/rat) together with ^18 F-tracer. […].
The inventors first determined the in vivo tissue distribution of [^18 F-FTX] in rats. Specifically, four groups of female Sprague-Dawley rats (N=4/group, 200-250 gm; obtained from Harlan Inc., Indianapolis, Ind.) were anesthetized with ketamine (10-15 mg/rat). […]. The tissue distribution was studied at 2 hour and 4 hour intervals.

rabbit uterus = test: Gamma scintigraphic imaging of estrogen receptor sites in rabbits; format: in vivo; details: for Rabbit uterus uptake after DES block (in words): DES 15 mg iv pretreatment
Description: Gamma scintigraphic images were obtained from GE Starport System (GE Company, Milwaukee, Wis.). […] Each pixel was 14 bits deep. Six New Zealand female rabbits (3-4 Kg B.W.) were administered 300 μCi of [^131 I]iodotamoxifen (iv) and multiple images at 2, 24 and 48 hours were accomplished. To ascertain the radioactivity uptake in uterus is via an ER-mediated process, the rabbits were administered with diethylstilbestrol (15 mg,iv) 1 hour prior to receiving [^131 I]ITX and the images were obtained at 2, 24 and 48 hours.

[4] = 2 h, blocked with estradiol 30 μg, listed as 18 Ftracer, 120 min
[5] = 2 h, blocked with estradiol 30 μg, listed as N,N-DIETHYL-[^18 F]FLUOROMETHYLTAMOXIFEN, 120 min
[6] = 2 h, estradiol-primed, listed as 18 Ftracer, 120 min
[7] = 2 h, not primed, listed as 18 Ftracer, 120 min
[8] = 2 h, not primed, listed as N,N-DIETHYL-[^18 F]FLUOROMETHYLTAMOXIFEN, 120 min
[9] = 4 h, estradiol-primed, listed as 18 Ftracer, 240 min

SUV (breast tumors [1]; patient 1, left axilla): 0.7 | SUV (breast tumors [1]; patient 2, mediastinum): 1.8 | SUV (breast tumors [1]; patient 3, left axilla): 2.6 | SUV (breast tumors [1]; patient 3, right axilla): 2.2 | SUV (breast tumors [1]; patient 3, right breast): 1.6 | SUV (breast tumors [1]; patient 3, spine): 3.0 | SUV of breast tumors (breast tumors [1]; three patients, 4 mCi): 2-5 | SUV in tumor of patients responding well to tamoxifen therapy (breast tumors [1]; three patients, listed as 18 F-tamoxifen): > 2.4 | SUV in tumor of patients responding well to tamoxifen therapy (breast tumors [1]; three patients, listed as [^18 F]fluorotamoxifen): more than 2.4 | SUV in lesion of patients responding poorly to tamoxifen therapy (breast tumors [2]; listed as 18 F-tamoxifen): < 2.0 | SUV in lesion of patients responding poorly to tamoxifen therapy (breast tumors [2]; listed as [^18 f]fluorotamoxifen): less than 2.0 | SUV (breast tumors [2]; patient 1, left breast): 1.6 | SUV (breast tumors [2]; patient 1, spine): 6.2 | SUV (breast tumors [2]; patient 1, sternum): 4.2 | SUV (breast tumors [2]; patient 3, left breast): 2.6 | SUV (breast tumors [2]; patient 4, right axilla): 1.3 | SUV (breast tumors [2]; patient 5, lung): 3.3 | SUV (breast tumors [2]; patient 6, left axilla): 2.9 | SUV (breast tumors [2]; patient 7, skull): 0.9 | SUV (breast tumors [2]; patient 8, neck): 2.4 | SUV (breast tumors [2]; patient 9, scapula): 1.3 | SUV (breast tumors [2]; patient 10, spine): 6.3 | Blood uptake [3, 4]: 0.048 % OF INJECTED DOSE/GRAM OF TIS | Bone uptake [3, 4]: 0.576 % OF INJECTED DOSE/GRAM OF TIS | Intestine uptake [3, 4]: 0.742 % OF INJECTED DOSE/GRAM OF TIS | Liver uptake [3, 4]: 4.451 % OF INJECTED DOSE/GRAM OF TIS | Muscle uptake [3, 4]: 0.145 % OF INJECTED DOSE/GRAM OF TIS | Uterus uptake [3, 4]: 0.297 % OF INJECTED DOSE/GRAM OF TIS | Blood uptake [3, 6]: 0.033 % OF INJECTED DOSE/GRAM OF TIS | Bone uptake [3, 6]: 0.653 % OF INJECTED DOSE/GRAM OF TIS | Intestine uptake [3, 6]: 0.917 % OF INJECTED DOSE/GRAM OF TIS | Kidney uptake [3, 6]: 0.742 % OF INJECTED DOSE/GRAM OF TIS | Liver uptake [3, 6]: 4.540 % OF INJECTED DOSE/GRAM OF TIS | Muscle uptake [3, 6]: 0.151 % OF INJECTED DOSE/GRAM OF TIS | Uterus uptake [3, 6]: 0.426 % OF INJECTED DOSE/GRAM OF TIS | Bone uptake ([3]; 2 h, estradiol-primed, listed as [^18 F]fluoro analogue of tamoxifen, 120 min): 0.65 % OF INJECTED DOSE/GRAM OF TIS | Blood uptake [3, 7]: 0.033 % OF INJECTED DOSE/GRAM OF TIS | Bone uptake [3, 7]: 0.644 % OF INJECTED DOSE/GRAM OF TIS | Intestine uptake [3, 7]: 0.504 % OF INJECTED DOSE/GRAM OF TIS | Kidney uptake [3, 7]: 0.530 % OF INJECTED DOSE/GRAM OF TIS | Liver uptake [3, 7]: 3.849 % OF INJECTED DOSE/GRAM OF TIS | Muscle uptake [3, 7]: 0.109 % OF INJECTED DOSE/GRAM OF TIS | Uterus uptake [3, 7]: 0.248 % OF INJECTED DOSE/GRAM OF TIS | Blood uptake [3, 9]: 0.045 % OF INJECTED DOSE/GRAM OF TIS | Bone uptake [3, 9]: 0.802 % OF INJECTED DOSE/GRAM OF TIS | Intestine uptake [3, 9]: 1.101 % OF INJECTED DOSE/GRAM OF TIS | Kidney uptake [3, 9]: 0.796 % OF INJECTED DOSE/GRAM OF TIS | Liver uptake [3, 9]: 4.205 % OF INJECTED DOSE/GRAM OF TIS | Muscle uptake [3, 9]: 0.183 % OF INJECTED DOSE/GRAM OF TIS | Uterus uptake [3, 9]: 0.400 % OF INJECTED DOSE/GRAM OF TIS | Bone uptake ([3]; 4 h, estradiol-primed, listed as [^18 F]fluoro analogue of tamoxifen, 240 min): 0.80 % OF INJECTED DOSE/GRAM OF TIS
SMILES: CCN(CC)CCOc1ccc(/C(=C(/CCC[18F])c2ccccc2)c2ccccc2)cc1 [[^18 F]FTX, (trans)[^18 F]Fluoromethyl-N,N-diethyltamoxifen]
Blood uptake [3, 5]: 0.048 % OF INJECTED DOSE/GRAM OF TISSUE WEIGHT | Bone uptake [3, 5]: 0.576 % OF INJECTED DOSE/GRAM OF TISSUE WEIGHT | Intestine uptake [3, 5]: 0.742 % OF INJECTED DOSE/GRAM OF TISSUE WEIGHT | Liver uptake [3, 5]: 4.451 % OF INJECTED DOSE/GRAM OF TISSUE WEIGHT | Muscle uptake [3, 5]: 0.145 % OF INJECTED DOSE/GRAM OF TISSUE WEIGHT | Uterus uptake [3, 5]: 0.297 % OF INJECTED DOSE/GRAM OF TISSUE WEIGHT | Blood uptake [3, 8]: 0.033 % OF INJECTED DOSE/GRAM OF TISSUE WEIGHT | Bone uptake [3, 8]: 0.644 % OF INJECTED DOSE/GRAM OF TISSUE WEIGHT | Intestine uptake [3, 8]: 0.504 % OF INJECTED DOSE/GRAM OF TISSUE WEIGHT | Kidney uptake [3, 8]: 0.530 % OF INJECTED DOSE/GRAM OF TISSUE WEIGHT | Liver uptake [3, 8]: 3.849 % OF INJECTED DOSE/GRAM OF TISSUE WEIGHT | Muscle uptake [3, 8]: 0.109 % OF INJECTED DOSE/GRAM OF TISSUE WEIGHT | Uterus uptake [3, 8]: 0.248 % OF INJECTED DOSE/GRAM OF TISSUE WEIGHT

uterus:muscle uptake ratio (rabbit uterus; 24 h postinjection): 4.6 | Rabbit uterus uptake after DES block (in words) (rabbit uterus; listed as 131 l-iodotamoxifen): the uterus showed decreased uptake
SMILES: CCN(CC)CCOc1ccc(/C(=C(/CCC[131I])c2ccccc2)c2ccccc2)cc1 [^131 I-IODOTAMOXIFEN]
Rabbit uterus uptake after DES block (in words) (rabbit uterus; listed as [^131 I]ITX): rabbit uterus uptake can be blocked by pretreatment with DES | Rabbit uterus uptake after DES block (in words) (rabbit uterus; listed as [^131 ]ITX): increased uptake can be blocked by pretreatment of the rabbit with DES
